Measurements taken from patent US20190100519A1, “HYDROCHLORIDE SALT CRYSTAL OF DRUG FOR TREATING OR PREVENTING JAK-ASSOCIATED DISEASE AND PREPARATION METHOD THEREOF” (CRYSTAL PHARMATECH CO., LTD., priority 2016, published 2019).
Values after ≈ are worked out from the molar mass of the structure shown. Read-outs that look alike come from different tables or passages of the source.

Assays:
[1] = clinical trials; cited from earlier work
[2] = Stability assessment of Form A (storage, XRPD); type: physicochemical; settings: two weeks
Experimental: 5 samples (10.0 mg each) of Form A obtained from example 2 was stored at 5° C., 25° C./60% RH, 40° C./75% RH, 60° C./75% RH and 80° C. for two weeks, then XRPD test was performed after one week and two weeks. The results are depicted in FIG. 6 and FIG. 7. FIG. 6 is the XRPD overlay of one-week stability, and the patterns from top to bottom are initial Form A, and Form A after storing at 25° C./60% RH, 40° C./75% RH, 60° C./75% RH, 80° C. for one week, respectively. FIG. 7 is the XRPD overlay of two-week stability, and the patterns from top to bottom are initial Form A, and Form A after storing at 25° C./60% RH, 40° C./75% RH, 60° C./75% RH and 80° C. for two weeks, respectively.

[3] = Solubility assessment (saturated solutions, HPLC); type: physicochemical; settings: for solubility at 1 h / solubility at 4 h: thermodynamic from solid
Experimental: The concentration of the saturated solutions was measured through HPLC after 1 hour and 4 hours.

[4] = Particle size comparison experiment (laser particle size analyzer); type: physicochemical; settings: wet method, Isopar G
Experimental: Wet method was used and Isopar G was used as the dispersion medium. [table] The particle size distributions of obtained Form A (example 2), Form B (example 4), Form C (example 5), Form D (example 8) and the reference form were measured.

[5] = Slurry experiment in different water activities (XRPD); type: physicochemical
Experimental: The samples were centrifuged after 48 hours, and tested by XRPD.

[6] = simulated gastric fluid, Solubility SGF

Row | Compound | solubility compared with reference form [3] | Solubility Water ([3]; 1 h) [µg/mL] | D10 [4] [μm] | D50 [4] [μm] | D90 [4] [μm] | MV (average particle size calculated by volume) [4] [μm] | Solubility SGF ([3]; 1 h) [µg/mL] | Solubility SGF ([3]; 4 h) [µg/mL] | Solubility Water ([3]; 4 h) [µg/mL] | further results
1 | O=C(Nc1nc2cccc(-c3ccc(CN4CCS(=O)(=O)CC4)cc3)n2n1)C1CC1 [Filgotinib, N-[5-[4-[(1,1-dioxo-1-thiomorpholin-4-yl)methyl]phenyl][1,2,4]triazole[1,5-a]pyridin-2-yl] cyclopropanecarboxamide] |  |  |  |  |  |  |  |  |  | anemia and abnormal increase in LDL [1]: does not cause an anemia and abnormal increase in LDL
2 | Cl.O=C(Nc1nc2cccc(-c3ccc(CN4CCS(=O)(=O)CC4)cc3)n2n1)C1CC1 [Form A] | higher solubility than the reference form | 1080 | 1.72 | 8.93 | 62.08 | 24.64 |  |  |  | form change (XRPD) after storage ([2]; 5° C.): no form change; form change (XRPD) after storage ([2]; 25° C./60% RH): no form change; form change (XRPD) after storage ([2]; 40° C./75% RH): no form change; form change (XRPD) after storage ([2]; 60° C./75% RH): no form change; form change (XRPD) after storage ([2]; 80° C.): no form change; solubility at 1 h [3, 6]: 1280 µg/mL; solubility at 4 h [3, 6]: 1200 µg/mL; solubility at 4 h ([3]; water, Solubility Water): 2430 µg/mL
3 | Cl.O=C(Nc1nc2cccc(-c3ccc(CN4CCS(=O)(=O)CC4)cc3)n2n1)C1CC1 [Form B] | higher solubility than the reference form | 5020 | 2.53 | 20.30 | 110.4 | 44.66 | 1450 | 960 | 3590 | 
4 | Cl.O=C(Nc1nc2cccc(-c3ccc(CN4CCS(=O)(=O)CC4)cc3)n2n1)C1CC1 [Form C] | higher solubility than the reference form | 5180 | 1.87 | 13.57 | 66.16 | 29.92 | 1930 | 1120 | 3060 | 
5 | Cl.O=C(Nc1nc2cccc(-c3ccc(CN4CCS(=O)(=O)CC4)cc3)n2n1)C1CC1 [Form D] | higher solubility than the reference form | 3000 | 5.77 | 25.92 | 82.42 | 41.24 | 2220 | 1150 | 2370 | 
6 | O=C(Nc1nc2cccc(-c3ccc(CN4CCS(=O)(=O)CC4)cc3)n2n1)C1CC1 [Reference form, reference compound] |  |  | 2.95 | 6.29 | 12.35 | 7.24 |  |  |  | Final Form ([5]; H2O/ACN 1:99, water activity 0.2, slurry 48 hours): Form A; Final Form ([5]; H2O/ACN 2:98, water activity 0.4, slurry 48 hours): Form A; Final Form ([5]; H2O/EtOH 2:98, water activity 0.15, slurry 48 hours): Form A; Final Form ([5]; H2O/MeOH 7:93, water activity 0.2, slurry 48 hours): Form A; Final Form ([5]; H2O/MeOH 16:84, water activity 0.4, slurry 48 hours): Form A; stability under low water activity ([5]; low water activity): not stable; solubility at 1 h ([3]; simulated gastric fluid (SGF), simulated gastric fluid, simulated gastric fluid (SGF), 1 h, read-out: Solubility SGF): 70 µg/mL (≈ 165 µM); solubility at 4 h ([3]; simulated gastric fluid (SGF), simulated gastric fluid, simulated gastric fluid (SGF), 4 h, read-out: Solubility SGF): 920 µg/mL (≈ 2160 µM); solubility at 1 h ([3]; water, water, 1 h, read-out: Solubility Water): 810 µg/mL (≈ 1900 µM); solubility at 4 h ([3]; water, water, 4 h, read-out: Solubility Water): 3000 µg/mL (≈ 7050 µM)
